Measurements taken from ChEMBL document CHEMBL1201862, “PubChem BioAssay data set” (2004).
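Step 1: Grow cells in 96-well plates. Step 2: Expose to compound for 48 hours at 5 concentrations. Step 3: Interpolate endpoints linearly; if unreached, use highest concentration. At the GI50, growth is halved.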 Calls of active or inactive are those of the source. Rule as the data show it: active = GI50 up to about 1.1 µM and inactive = higher.

Key:
Assay in all cases: growth of human tumour cells (NCI), 48 h
786-0 = tested on: 786-0
A498 = tested on: A498
A549 = tested on: A549
ACHN = tested on: ACHN
BT-549 = tested on: BT-549
CAKI-1 = tested on: CAKI-1
CCRF-CEM = tested on: CCRF-CEM
COLO 205 = tested on: COLO 205
DU-145 = tested on: DU-145
EKVX = tested on: EKVX
HCC 2998 = tested on: HCC 2998
HCT-116 = tested on: HCT-116
HCT-15 = tested on: HCT-15
HL-60 = tested on: HL-60
HOP-62 = tested on: HOP-62
HOP-92 = tested on: HOP-92
HT-29 = tested on: HT-29
Hs-578T = tested on: Hs-578T
IGROV-1 = tested on: IGROV-1
K562 = tested on: K562
KM12 = tested on: KM12
LOX IMVI = tested on: LOX IMVI
M14 = tested on: M14
MCF7 = tested on: MCF7
MDA-MB-231 = tested on: MDA-MB-231
MDA-MB-435 = tested on: MDA-MB-435
MDA-N = tested on: MDA-N
MOLT-4 = tested on: MOLT-4
Malme-3M = tested on: Malme-3M
NCI-H226 = tested on: NCI-H226
NCI-H23 = tested on: NCI-H23
NCI-H460 = tested on: NCI-H460
NCI-H522 = tested on: NCI-H522
NCI/ADR-RES = tested on: NCI/ADR-RES
OVCAR-4 = tested on: OVCAR-4
OVCAR-5 = tested on: OVCAR-5
OVCAR-8 = tested on: OVCAR-8
PC-3 = tested on: PC-3
RPMI-8226 = tested on: RPMI-8226
RXF 393 = tested on: RXF 393
SF-268 = tested on: SF-268
SF-295 = tested on: SF-295
SF-539 = tested on: SF-539
SK-MEL-28 = tested on: SK-MEL-28
SK-MEL-2 = tested on: SK-MEL-2
SK-MEL-5 = tested on: SK-MEL-5
SK-OV-3 = tested on: SK-OV-3
SN12C = tested on: SN12C
SNB-19 = tested on: SNB-19
SNB-75 = tested on: SNB-75
SR = tested on: SR
SW-620 = tested on: SW-620
T47D = tested on: T47D
TK-10 = tested on: TK-10
U-251 = tested on: U-251
UACC-257 = tested on: UACC-257
UACC-62 = tested on: UACC-62
UO-31 = tested on: UO-31
OVCAR-3 = tested on: OVCAR-3

## COC(=O)C(CCSC)NC(=O)CSc1nnc(COc2ccc(Cl)cc2)n1-c1ccccc1 (stereo unspecified)
786-0
  GI50: 16.3 µM (inactive)
A498
  GI50: 21.3 µM (inactive)
A549
  GI50: 26.8 µM (inactive)
ACHN
  GI50: 18.1 µM (inactive)
BT-549
  GI50: 19.6 µM (inactive)
CAKI-1
  GI50: 16.7 µM (inactive)
CCRF-CEM
  GI50: 23.7 µM (inactive)
COLO 205
  GI50: 18.3 µM (inactive)
DU-145
  GI50: 18.2 µM (inactive)
EKVX
  GI50: 27.6 µM (inactive)
HCC 2998
  GI50: 7.52 µM (inactive)
HCT-116
  GI50: 16.6 µM (inactive)
HCT-15
  GI50: 18.6 µM
HL-60
  GI50: 18.3 µM (inactive)
HOP-62
  GI50: 3.08 µM (inactive)
HOP-92
  GI50: 18.2 µM (inactive)
HT-29
  GI50: 18.3 µM (inactive)
Hs-578T
  GI50: 21.4 µM (inactive)
IGROV-1
  GI50: 16 µM (inactive)
K562
  GI50: 24.5 µM (inactive)
KM12
  GI50: 18.2 µM (inactive)
LOX IMVI
  GI50: 13.8 µM (inactive)
M14
  GI50: 18.7 µM (inactive)
MCF7
  GI50: 21.1 µM (inactive)
MDA-MB-231
  GI50: 17 µM (inactive)
MDA-MB-435
  GI50: 18.4 µM (inactive)
MDA-N
  GI50: 18.9 µM (inactive)
MOLT-4
  GI50: 13.9 µM (inactive)
Malme-3M
  GI50: 21.3 µM (inactive)
NCI-H226
  GI50: 21.4 µM (inactive)
NCI-H23
  GI50: 17.8 µM (inactive)
NCI-H460
  GI50: 14.4 µM (inactive)
NCI-H522
  GI50: 3.77 µM (inactive)
NCI/ADR-RES
  GI50: 17.6 µM (inactive)
OVCAR-4
  GI50: 16.1 µM (inactive)
OVCAR-5
  GI50: 19.5 µM (inactive)
OVCAR-8
  GI50: 18.6 µM (inactive)
PC-3
  GI50: 18.9 µM (inactive)
RPMI-8226
  GI50: 0.883 µM (active)
RXF 393
  GI50: 19.1 µM (inactive)
SF-268
  GI50: 17.1 µM (inactive)
SF-295
  GI50: 17 µM (inactive)
SF-539
  GI50: 18.4 µM (inactive)
SK-MEL-28
  GI50: 17.4 µM (inactive)
SK-MEL-2
  GI50: 16 µM (inactive)
SK-MEL-5
  GI50: 18.5 µM (inactive)
SK-OV-3
  GI50: 14.5 µM (inactive)
SN12C
  GI50: 17.8 µM (inactive)
SNB-19
  GI50: 23.5 µM (inactive)
SNB-75
  GI50: 16.7 µM (inactive)
SR
  GI50: 8.53 µM (inactive)
SW-620
  GI50: 21.7 µM (inactive)
T47D
  GI50: 27.5 µM (inactive)
TK-10
  GI50: 19.1 µM (inactive)
U-251
  GI50: 17.1 µM (inactive)
UACC-257
  GI50: 16.9 µM (inactive)
UACC-62
  GI50: 18.2 µM (inactive)
UO-31
  GI50: 3.94 µM (inactive)

## O=C(O)c1cccc(OCCOc2cccc(C(=O)O)c2[N+](=O)[O-])c1[N+](=O)[O-]
786-0
  GI50: > 100 µM (inactive)
A498
  GI50: > 100 µM (inactive)
A549
  GI50: > 100 µM (inactive)
ACHN
  GI50: > 100 µM (inactive)
BT-549
  GI50: > 100 µM (inactive)
CAKI-1
  GI50: > 100 µM (inactive)
CCRF-CEM
  GI50: > 100 µM (inactive)
COLO 205
  GI50: > 100 µM (inactive)
DU-145
  GI50: > 100 µM (inactive)
EKVX
  GI50: > 100 µM (inactive)
HCC 2998
  GI50: > 100 µM (inactive)
HCT-116
  GI50: > 100 µM (inactive)
HCT-15
  GI50: > 100 µM
HL-60
  GI50: > 100 µM (inactive)
HOP-62
  GI50: > 100 µM (inactive)
HOP-92
  GI50: > 100 µM (inactive)
HT-29
  GI50: > 100 µM (inactive)
Hs-578T
  GI50: > 100 µM (inactive)
IGROV-1
  GI50: > 100 µM (inactive)
KM12
  GI50: > 100 µM (inactive)
LOX IMVI
  GI50: > 100 µM (inactive)
M14
  GI50: > 100 µM (inactive)
MCF7
  GI50: > 100 µM (inactive)
MDA-MB-231
  GI50: > 100 µM (inactive)
MDA-MB-435
  GI50: > 100 µM (inactive)
MDA-N
  GI50: > 100 µM (inactive)
MOLT-4
  GI50: > 100 µM (inactive)
Malme-3M
  GI50: > 100 µM (inactive)
NCI-H226
  GI50: > 100 µM (inactive)
NCI-H23
  GI50: > 100 µM (inactive)
NCI-H460
  GI50: > 100 µM (inactive)
NCI-H522
  GI50: > 100 µM (inactive)
NCI/ADR-RES
  GI50: > 100 µM (inactive)
OVCAR-3
  GI50: > 100 µM (inactive)
OVCAR-4
  GI50: > 100 µM (inactive)
OVCAR-5
  GI50: > 100 µM (inactive)
OVCAR-8
  GI50: > 100 µM (inactive)
PC-3
  GI50: > 100 µM (inactive)
RPMI-8226
  GI50: > 100 µM (inactive)
RXF 393
  GI50: > 100 µM (inactive)
SF-268
  GI50: > 100 µM (inactive)
SF-295
  GI50: > 100 µM (inactive)
SF-539
  GI50: > 100 µM (inactive)
SK-MEL-28
  GI50: > 100 µM (inactive)
SK-MEL-2
  GI50: > 100 µM (inactive)
SK-MEL-5
  GI50: > 100 µM (inactive)
SK-OV-3
  GI50: > 100 µM (inactive)
SN12C
  GI50: > 100 µM (inactive)
SNB-19
  GI50: > 100 µM (inactive)
SNB-75
  GI50: > 100 µM (inactive)
SR
  GI50: > 100 µM (inactive)
SW-620
  GI50: > 100 µM (inactive)
T47D
  GI50: > 100 µM (inactive)
TK-10
  GI50: > 100 µM (inactive)
U-251
  GI50: > 100 µM (inactive)
UACC-257
  GI50: > 100 µM (inactive)
UACC-62
  GI50: > 100 µM (inactive)
UO-31
  GI50: > 100 µM (inactive)
